Measurements reported in patent US20060154892A1, “Procedure to block the replication of reverse transcriptase dependent viruses by the use of inhibitors of deoxynucleotides synthesis” (priority 1993, published 2006).
Read-outs that look alike come from different tables or passages of the source.

Key:
HIV-1 IIIB [1] = test: expected p24 expression in HIV-1 IIIB infected PHA-stimulated PBL with hydroxyurea and/or nucleoside analogs (Example 10); format: cell-based
Method: PBL isolated from healthy donors are stimulated with PHA and IL-2 for 48 hours using standard protocols. At the same time, the cells are pre-treated with hydroxyurea alone or in combination with either ddI or fluorinated derivatives of chain-terminating nucleosides.

HIV-1 RT [2] = biological target: T1, HIV-1 RT (Human immunodeficiency virus type 1 group M subtype B, UniProt P04585); test: Km of HIV-1 RT for dNTP, 600-base globin mRNA template; format: biochemical; conditions: 600-base globin mRNA as template
PBL [3] = conditions: doses corresponding to plasma concentrations in treated AIDS patients; cited from earlier work
HIV-1 [4] = conditions: for effect on HIV-1 replication at the lowest levels: in some cases, only when used individually, FIG. 3
Method: PBL from healthy donors were infected for 2 hour at 37° C. with HIV-1 [HTLV-IIIB] (m.o.i.=1) after 2 days stimulation with PHA and Interleukin-2 (IL-2). […] Every 3-4 days, supernatant was harvested for p24 analysis, cells were counted and fresh supernatant and drugs were added. Samples were analyzed for (a) p24 production in the supernatant, (b) count of viable cells, and (c) ratios between the values expressed in (a) and (b).
PBL were isolated and stimulated for 2 days with PHA and IL-2. […] The extent of HIV-1 infection was analyzed as described in Example 5. Samples were tested for (a) p24 production in the supernatant, (b) viable cell count.

HIV-1 [5] = tested on: HIV-1
Excerpt: In the latter procedure, we measured p24 production during the course of an in vitro infection to assess the inhibition of HIV-1 replication in activated PBL.

HIV-1 strain Ba-L = test: p24 production in primary human macrophages infected with HIV-1 Ba-L; format: cell-based; conditions: for inhibition at 1000 µM: Human immunodeficiency virus 1, BAL, Macrophage
Method: Macrophages were obtained by cell adhesion after purification of PBL from healthy donors. After 14 days treatment with granulocyte-macrophage-colony-stimulating factor, cells were infected overnight with the HIV-1 strain Ba-L (Gartner et al., Science 233:215 (1986)). […] Supernatants were harvested ever 4-5 days for p24 analysis and fresh supernatant and drugs were added.
Percentages of HIV-1 inhibition were calculated based on p24 production compared to the untreated control. Drug treatment of macrophages was suspended after 14 days.

[6] = cited from earlier work
[7] = tested on: primary human macrophages; conditions: for Viable cells: Macrophages
HIV-1 [HTLV-IIIB] = test: p24 production in activated PBL infected with HIV-1 [HTLV-IIIB], drugs added after infection; format: cell-based; conditions: for inhibition at 1000 µM: Human immunodeficiency virus 1, IIIB, PBMC
HIV-1 [8] = test: administration of hydroxyurea to HIV-1 seropositive volunteers, CD4+ T-cell count (Example 9); format: in vivo, human; conditions: 20-40 mg per kg per day, after one month of drug treatment
Method: One or more HIV-1 seropositive volunteers are first identified. Blood samples drawn from the volunteers are assayed for CD4^+T-cells using any suitable quantitation means. Such quantitation means include, but are not limited to, the flow cytometer. Over a period of from several weeks to months, the number of CD4^+T-cells is observed to decrease steadily as an indicator of disease progression.
The nucleoside analogs can be any of ddI, ddC or AZT, or combinations thereof.
When hydroxyurea is used in conjunction with a nucleoside analog, the dosage of the analog is determined according to convention in the medical and pharmaceutical arts.
After one month of drug treatment blood samples are again drawn and assayed for CD4^+T-cells.

[9] = tested on: dNTP pools in PHA stimulated PBL; test: dNTP pools in HIV-1 infected PHA-stimulated PBL treated with hydroxyurea (enzyme assay); format: cell-based, human; conditions: 1 mM hydroxyurea
Method: PBLs were cultured in the presence or absence of phytohemagglutinin A (PHA) at 10 μg/ml for 48 hours. Intracellular dNTP were extracted with 60% methanol and were examined by an enzyme assay using synthetic oligonucleotides (P. A. Sherman and A. J. Fyfe, 1989 Anal. Biochem. 180:222). Data represent the mean value of three experiments. […] The cellular volume of PBL was measured using a Coulter counter analizer and found to be approximately 0.25 μl/10^6 cells for quiescent PBL and 0.38 μl/10^6 cells for stimulated PBL, respectively.
Cell aliquots were harvested 24, 48 and 72 hours after infection and analyzed for the rate of dNTP synthesis inhibition (Sherman and Fyfe, supra) measured as the percentage of dNTP levels compared to the control cells.

HIV-1 RT [10] = biological target: T1, HIV-1 RT; test: in vitro activity of recombinant HIV-1 RT (primer extension assay); format: biochemical; conditions: 200 mM
Method: We also assessed the in vitro activity of recombinant HIV-1 RT at dNTP concentrations that were equivalent to those found in quiescent and stimulated PBL. DNA was synthesized using a globin mRNA template and an oligo dT16 primer (a primer extension assay). The HIV-1 RT reaction mixture contained 50 mM Tris-HCl (pH 8.0), 6 mM MgCl2, 76 mM KCl, 0.5 mM DTT, 80 nM globin mRNA primed with oligo dT16 in 1:5 ratio, and dNTP at (a) the concentrations equivalent to quiescent cells and (b) the concentrations equivalent to stimulated cells as described in Table 1. Recombinant HIV-1 RT (obtained from American Biotechnologies) was used at 5 U/ml.

HIV-1 IIIB [11] = conditions: for RT Activity: 1 mM hydroxyurea
PBL [12] = test: count of viable cells in HIV-1 infected activated PBL culture; format: cell-based, human; conditions: for Viable cells: PBMC, 1 mM Hydroxyurea
[13] = nucleoside analog 20 μM, day 12

For `Nc1ncnc2c1ncn2[C@@H]1O[C@H](CO)C[C@@H]1F` [2′-F-dd-ara-A], the “p24 Expression after Infection” value (HIV-1 IIIB [1]; nucleoside analog 20 μM, day 4) was “Low”, the “p24 Expression after Infection” value (HIV-1 IIIB [1]; nucleoside analog 20 μM, day 8) was “Medium” and the “p24 Expression after Infection” value (HIV-1 IIIB [1]; [13]) was “Medium”.

With `Nc1nc2c(ncn2[C@@H]2O[C@H](CO)C[C@@H]2F)c(=O)[nH]1` [2′-F-dd-ara-G] the “p24 Expression after Infection” value (HIV-1 IIIB [1]; nucleoside analog 20 μM, day 4) was “Low”, the “p24 Expression after Infection” value (HIV-1 IIIB [1]; nucleoside analog 20 μM, day 8) was “Medium” and the “p24 Expression after Infection” value (HIV-1 IIIB [1]; [13]) was “Medium”.

For `O=c1[nH]cnc2c1ncn2[C@@H]1O[C@H](CO)C[C@@H]1F` [2′-F-dd-ara-I], the “p24 Expression after Infection” value (HIV-1 IIIB [1]; nucleoside analog 20 μM, day 4) was “Low”, the “p24 Expression after Infection” value (HIV-1 IIIB [1]; nucleoside analog 20 μM, day 8) was “Medium” and the “p24 Expression after Infection” value (HIV-1 IIIB [1]; [13]) was “Medium”.

Molecule `Nc1ncnc2c1ncn2[C@H]1C[C@H](O)[C@@H](COP(=O)(O)OP(=O)(O)OP(=O)(O)O)O1` [dATP] has a Km (HIV-1 RT [2]) of 2.6 µM.

For `Nc1ccn([C@H]2C[C@H](O)[C@@H](COP(=O)(O)OP(=O)(O)OP(=O)(O)O)O2)c(=O)n1` [dCTP], the Km (HIV-1 RT [2]) was 3.8 µM.

Work on `Nc1nc2c(ncn2[C@H]2C[C@H](O)[C@@H](COP(=O)(O)OP(=O)(O)OP(=O)(O)O)O2)c(=O)[nH]1` [dGTP] yielded a Km (HIV-1 RT [2]) of 3.9 µM.

In the case of `Cc1cn([C@H]2C[C@H](O)[C@@H](COP(=O)(O)OP(=O)(O)OP(=O)(O)O)O2)c(=O)[nH]c1=O` [dTTP], the Km (HIV-1 RT [2]) is reported as 4 µM.

In the case of `O=c1[nH]cnc2c1ncn2[C@H]1CC[C@@H](CO)O1` [ddI, didanosine], the cytotoxicity (PBL [3]) is listed as “low”, the “effect on HIV-1 replication at the lowest levels” value (HIV-1 [4]) is listed as “stimulated HIV-1 replication” and the “p24 Expression after Infection” value (HIV-1 IIIB [1]; nucleoside analog 20 μM, day 4) is listed as “Low”. For the same molecule, the “p24 Expression after Infection” value (HIV-1 IIIB [1]; nucleoside analog 20 μM, day 8) was “Medium”, the “p24 Expression after Infection” value (HIV-1 IIIB [1]; [13]) was “Medium” and the p24 after infection (HIV-1 [5]; ddI 0.2 μM, day 4) was 4 ng/mL. For the same molecule, the p24 after infection (HIV-1 [5]; ddI 0.2 μM, day 8) was 116 ng/mL, the p24 after infection (HIV-1 [5]; ddI 0.2 μM, day 12) was 197 ng/mL and the p24 after infection (HIV-1 [5]; ddI 1 μM, day 4) was 3 ng/mL. It also gave a p24 after infection (HIV-1 [5]; ddI 1 μM, day 8) of 90 ng/mL, a p24 after infection (HIV-1 [5]; ddI 1 μM, day 12) of 196 ng/mL and a p24 after infection (HIV-1 [5]; ddI 5 μM, day 4) of 1 ng/mL. It also gave a p24 after infection (HIV-1 [5]; ddI 5 μM, day 8) of 58 ng/mL, a p24 after infection (HIV-1 [5]; ddI 5 μM, day 12) of 125 ng/mL and a p24 after infection (HIV-1 [5]; ddI 20 μM, day 4) of 1 ng/mL. For the same molecule, the p24 after infection (HIV-1 [5]; ddI 20 μM, day 8) was 25 ng/mL and the p24 after infection (HIV-1 [5]; ddI 20 μM, day 12) was 51 ng/mL.

Molecule `NC(=O)NO` [hydroxyurea] has an inhibition at 1000 µM (HIV-1 strain Ba-L; 96 h) of 100%, an inhibition at 1000 µM (HIV-1 strain Ba-L; 168 h) of 100% and an inhibition at 1000 µM (HIV-1 strain Ba-L; 240 h) of 100%. The inhibition at 1000 µM (HIV-1 strain Ba-L; 336 h) was 100%, the HIV-1 replication (HIV-1 strain Ba-L; continuous treatment with 1 mM hydroxyurea, macrophages) was “completely blocked HIV-1 replication” and the “block of HIV-1 replication” value (HIV-1 strain Ba-L; hydroxyurea as low as 0.05 mM, macrophages) was over 99.9%. The “HIV-1 replication after discontinuing the drug treatment” value (HIV-1 strain Ba-L; infected macrophages, several weeks after discontinuing, in some experiments) was “absence of HIV-1 replication”, the “dose-dependent inhibition of HIV-1 production in macrophages compared with PBL” value (HIV-1 strain Ba-L; same donor for PBL and macrophages) was “consistently more potent than with primary PBL” and the “blood concentration during standard clinical protocols” value ([6]; humans) was about 1000 µM. The absorption ([6]; oral ingestion) was “readily absorbed after oral ingestion”, the cytotoxic effects [7] was “no cytotoxic effects were observed” and the Viable cells ([7]; 1 mM Hydroxyurea, day 4) was 300 thousands/cm^2. The Viable cells ([7]; 1 mM Hydroxyurea, day 7) was 280 thousands/cm^2, the Viable cells ([7]; 1 mM Hydroxyurea, day 10) was 270 thousands/cm^2 and the Viable cells ([7]; 1 mM Hydroxyurea, day 14) was 270 thousands/cm^2. The Viable cells ([7]; day 21, drug suspension after 14 days) was 260 thousands/cm^2, the Viable cells ([7]; day 28, drug suspension after 14 days) was 240 thousands/cm^2 and the Viable cells ([7]; day 35, drug suspension after 14 days) was 190 thousands/cm^2. The inhibition at 1000 µM (HIV-1 [HTLV-IIIB]; 96 h) was 100%, the inhibition at 1000 µM (HIV-1 [HTLV-IIIB]; 168 h) was 100% and the inhibition at 1000 µM (HIV-1 [HTLV-IIIB]; 240 h) was 100%. For the same molecule, the inhibition at 1000 µM (HIV-1 [HTLV-IIIB]; 336 h) was 100%, the HIV-1 replication (HIV-1 [HTLV-IIIB]; continuous treatment with 1 mM hydroxyurea, activated PBL) was “completely blocked HIV-1 replication” and the “antiviral effect, p24 normalized to number of viable cells” value (HIV-1 [HTLV-IIIB]; low concentrations, FIG. 1c) was “not mediated by cytotoxicity”. For the same molecule, the “HIV-1 replication (p24 in supernatant)” value (HIV-1 [HTLV-IIIB]; used alone at low concentrations, FIG. 1a) was “inhibited in a dose-dependent manner”, the “effect on HIV-1 replication at the lowest levels” value (HIV-1 [4]) was “stimulated HIV-1 replication” and the HIV-1 replication (HIV-1 [4]; patient PBL, FIG. 3a) was “inhibited HIV-1 replication in a dose-dependent manner”. The “CD4+ T-cell population” value (HIV-1 [8]) was “stabilized or increased”, the “dNTP pools in stimulated PBL” value [9] was “substantially depleted” and the “p24 Expression after Infection” value (HIV-1 IIIB [1]; HU 50 μM, day 4) was “Low”. For the same molecule, the “p24 Expression after Infection” value (HIV-1 IIIB [1]; HU 50 μM, day 8) was “Medium”, the “p24 Expression after Infection” value (HIV-1 IIIB [1]; HU 50 μM, day 12) was “High” and the “direct inhibition of RT enzymatic activity” value (HIV-1 RT [10]) was “did not directly inhibit RT enzymatic activity”. The “RT Activity” value (HIV-1 IIIB [11]; day 2) was 0.892 cpm/ml × 1000, the “RT Activity” value (HIV-1 IIIB [11]; day 5) was 0.589 cpm/ml × 1000 and the “RT Activity” value (HIV-1 IIIB [11]; day 9) was 0.434 cpm/ml × 1000. For the same molecule, the “viral expression of RT” value (HIV-1 IIIB [11]; pre-infection treatment with 1 mM hydroxyurea) was “significantly reduced”, the cytotoxic effects (PBL [12]; 0.1 mM hydroxyurea, continuous exposure, FIG. 1b) was “some cytotoxic effects” and the toxicity (PBL [12]; 1 mM hydroxyurea, activated PBL) was “toxic effects at these concentrations were observed early”. The Viable cells (PBL [12]; day 4) was 500 thousands/ml, the Viable cells (PBL [12]; day 7) was 185 thousands/ml and the Viable cells (PBL [12]; day 10) was 87 thousands/ml. The Viable cells (PBL [12]; day 14) was 36 thousands/ml, the “cytostatic and cytotoxic effects” value (PBL [12]; decreased drug concentration, FIG. 1b) was “virtually disappeared” and the p24 after infection (HIV-1 [5]; HU 10 μM, day 4) was 4 ng/mL. The p24 after infection (HIV-1 [5]; HU 10 μM, day 8) was 100 ng/mL, the p24 after infection (HIV-1 [5]; HU 10 μM, day 12) was 204 ng/mL and the p24 after infection (HIV-1 [5]; HU 50 μM, day 4) was 3 ng/mL. For the same molecule, the p24 after infection (HIV-1 [5]; HU 50 μM, day 8) was 113 ng/mL, the p24 after infection (HIV-1 [5]; HU 50 μM, day 12) was 148 ng/mL and the p24 after infection (HIV-1 [5]; HU 100 μM, day 4) was 2 ng/mL. For the same molecule, the p24 after infection (HIV-1 [5]; HU 100 μM, day 8) was 111 ng/mL and the p24 after infection (HIV-1 [5]; HU 100 μM, day 12) was 116 ng/mL.
